Each structure is given as a SMILES string. pEC50: −log10 of the molar value.

For the test, the target named is T1, human recombinant mGluR5 (Homo sapiens, UniProt P41594).
T1 construct: expressed in transfected cells; host or cells: HEK 293 cell line, cultured with tetracycline, hygromycin and geneticin; tetracycline is withdrawn 3-7 days before the assay
T1 sequence (P41594 21-1212): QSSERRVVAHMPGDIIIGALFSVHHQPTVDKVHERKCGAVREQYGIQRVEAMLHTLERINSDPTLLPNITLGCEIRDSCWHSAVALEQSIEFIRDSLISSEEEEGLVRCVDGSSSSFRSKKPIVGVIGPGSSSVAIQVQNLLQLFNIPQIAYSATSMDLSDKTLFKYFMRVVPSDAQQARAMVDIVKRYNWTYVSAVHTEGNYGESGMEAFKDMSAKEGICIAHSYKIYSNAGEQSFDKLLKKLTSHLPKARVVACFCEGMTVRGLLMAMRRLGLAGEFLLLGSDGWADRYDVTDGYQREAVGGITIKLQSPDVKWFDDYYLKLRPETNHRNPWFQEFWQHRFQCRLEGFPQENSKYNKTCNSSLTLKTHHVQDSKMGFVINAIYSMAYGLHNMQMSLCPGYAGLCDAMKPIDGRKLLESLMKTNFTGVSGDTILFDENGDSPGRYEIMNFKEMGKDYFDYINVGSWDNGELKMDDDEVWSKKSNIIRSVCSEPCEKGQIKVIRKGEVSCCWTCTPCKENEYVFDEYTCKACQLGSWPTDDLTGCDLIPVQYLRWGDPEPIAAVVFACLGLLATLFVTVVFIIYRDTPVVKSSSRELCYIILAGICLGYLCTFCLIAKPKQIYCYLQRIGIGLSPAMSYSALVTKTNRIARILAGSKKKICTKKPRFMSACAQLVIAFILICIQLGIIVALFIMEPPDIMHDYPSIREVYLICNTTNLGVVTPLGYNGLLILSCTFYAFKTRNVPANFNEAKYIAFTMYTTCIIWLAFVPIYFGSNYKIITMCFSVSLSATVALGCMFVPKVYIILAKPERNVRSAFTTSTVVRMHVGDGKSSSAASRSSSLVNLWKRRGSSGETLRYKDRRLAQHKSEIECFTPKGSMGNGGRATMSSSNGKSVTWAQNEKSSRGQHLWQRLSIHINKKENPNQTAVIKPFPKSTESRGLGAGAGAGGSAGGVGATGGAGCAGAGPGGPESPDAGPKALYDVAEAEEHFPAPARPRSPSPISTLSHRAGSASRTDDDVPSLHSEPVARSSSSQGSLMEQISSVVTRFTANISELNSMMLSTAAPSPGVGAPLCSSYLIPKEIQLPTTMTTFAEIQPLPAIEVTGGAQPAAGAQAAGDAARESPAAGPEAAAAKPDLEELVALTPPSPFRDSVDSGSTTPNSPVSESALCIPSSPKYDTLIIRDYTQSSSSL
Description: positive modulation of mGluR5, calcium based FLIPR assay. The test is classed as cell-based. To be noted: EC50 of the modulation; HEK 293 cell line expressing human recombinant mGluR5; peak height of Ca fluorescence signal after glutamate at approx. 5% basal stimulation; read-out: EC50. In short, it runs like this:
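HEK 293 cells expressing human recombinant mGluR5, tetracycline-free before assay, loaded with Calcium-4 dye in Ringer solution pH 7.4. Compounds (1% DMSO final) added for 5 min, then glutamate at about 5% of maximal effect; FLIPR peak Ca signal scaled between 1% DMSO (100%) and 10 μM CDPPB (200%) controls, EC50 by nonlinear regression.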
For the compound `Cc1nc2c(o1)CN(C(=O)Cn1nc(-c3ccc(F)c(C)c3)nc1C1CCCCC1)CC2` [Example 7.03.059.], the pEC50 is 6.27.
For the compound `Cc1nc2c(s1)CN(C(=O)Cn1nc(-c3ccc(F)c(C)c3)nc1C1CCCCC1)C2` [Example 7.03.060.], the pEC50 is 6.59.
In the case of `Cc1cc(-c2nc(C3CCCCC3)n(CC(=O)N3CCc4nc(N)sc4CC3)n2)ccc1F` [Example 7.03.061.], the pEC50 was 6.43.
As for `Cc1nc2c(s1)CCN(C(=O)Cn1nc(-c3ccc(F)c(C)c3)nc1C1CCCCC1)CC2` [Example 7.03.062.], the pEC50 is 6.81.
For the compound `Cc1nc2c(s1)CCN(C(=O)Cn1nc(-c3ccc(F)c(C)c3)nc1-c1ccccc1)CC2` [Example 7.03.063.], the negative logarithm of the EC50 (pEC50) is 7.22.
Take `Cc1nc2c(o1)CN(C(=O)Cn1nc(-c3ccc(F)c(C)c3)nc1-c1ccccc1)CC2` [Example 7.03.064.]: the pEC50 was 7.07.
For `Cc1cc(-c2nc(-c3ccccc3)n(CC(=O)N3CCc4nc(N)sc4CC3)n2)ccc1F` [Example 7.03.065.], the negative logarithm of the EC50 (pEC50) was 7.02.
Consider `Cc1nc2c(s1)CN(C(=O)Cn1nc(-c3ccc(F)c(C)c3)nc1-c1ccccc1)C2` [Example 7.03.066.], for which the negative-log EC50 (pEC50) was 7.15.
As for `COc1cc(-c2nc(-c3ccc(F)cc3)nn2CC(=O)N2CCc3nc(C)sc3CC2)ccc1F` [Example 7.03.069.], the pEC50 was 6.24.
`CCCc1nc(-c2ccc(F)c(C)c2)nn1CC(=O)N1CCc2nc(C)sc2CC1` [Example 7.03.070.]: the pEC50 was 6.34.
With `CCCc1nc(-c2ccc(F)c(C)c2)nn1CC(=O)N1Cc2nc(C)sc2C1` [Example 7.03.071.], the pEC50 was 5.93.
Turning to `CCCc1nc(-c2ccc(F)c(C)c2)nn1CC(=O)N1CCc2nc(N)sc2CC1` [Example 7.03.072.], the pEC50 was 6.39.
In the case of `Cc1cc(-c2nc(C(C)C)n(CC(=O)N3CCc4nc(N)sc4CC3)n2)ccc1F` [Example 7.03.073.] it was 5.93.
With `Cc1nc2c(s1)CCN(C(=O)Cn1nc(-c3ccc(F)c(C)c3)nc1C(C)C)CC2` [Example 7.03.074.], the pEC50 was 6.49.
Next, `Cc1cc(-c2nc(C(C)C)n(CC(=O)N3CC=C(c4ccccn4)CC3)n2)ccc1F` [Example 7.03.075.]: 5.96.
Regarding `Cc1cc(-c2nc(C(C)C)n(CC(=O)N3CC=C(c4ncccn4)CC3)n2)ccc1F` [Example 7.03.076.], the negative logarithm of the EC50 (pEC50) was 5.77.
As to `COc1cc(C2=CCN(C(=O)Cn3nc(-c4ccc(F)c(C)c4)nc3C(C)C)CC2)ncn1` [Example 7.03.077.], the pEC50 was 6.30.
On to `Cc1ccnc(C2=CCN(C(=O)Cn3nc(-c4ccc(F)c(C)c4)nc3C(C)C)CC2)c1` [Example 7.03.078.], for which the pEC50 was 6.10.
On to `COc1ccnc(C2=CCN(C(=O)Cn3nc(-c4ccc(F)c(C)c4)nc3C(C)C)CC2)c1` [Example 7.03.079.], for which the pEC50 was 6.26.
On to `COc1cnc(C2=CCN(C(=O)Cn3nc(-c4ccc(F)c(C)c4)nc3C(C)C)CC2)nc1` [Example 7.03.080.], for which the negative logarithm of the EC50 (pEC50) was 5.94.
In the case of `CCc1nc(-c2ccc(F)c(C)c2)nn1CC(=O)N1CCc2nc(C)sc2CC1` [Example 7.03.081.] it was 6.38.
For the compound `CCc1nc(-c2ccc(F)c(C)c2)nn1CC(=O)N1CCc2nc(N)sc2CC1` [Example 7.03.082.], the negative logarithm of the EC50 (pEC50) is 5.72.
As for `Cc1cc(-c2nc(-c3ccc(F)c(C)c3)n(CC(=O)N3CCc4nc(N)sc4CC3)n2)ccc1F` [Example 7.03.083.], the pEC50 was 7.19.
In the case of `Cc1nc2c(s1)CCN(C(=O)Cn1nc(-c3ccc(F)c(C)c3)nc1-c1ccc(F)c(C)c1)CC2` [Example 7.03.084.], the negative-log EC50 (pEC50) is 7.28.
Next, `CCC(C)c1nc(-c2ccc(F)c(C)c2)nn1CC(=O)N1CCc2nc(N)sc2CC1` (stereo not shown) [Example 7.03.085.]: 6.19; `CCC(C)c1nc(-c2ccc(F)c(C)c2)nn1CC(=O)N1CCc2nc(C)sc2CC1` (stereo not shown) [Example 7.03.086.]: 6.42; `Cc1nc2c(s1)CCN(C(=O)Cn1nc(-c3ccc(F)c(C)c3)nc1C)CC2` [Example 7.03.087.]: 6.19.
On to `COc1cc(-c2nc(-c3ccc(F)cc3)n(CC(=O)N3CCc4nc(N)sc4CC3)n2)ccc1F` [Example 7.03.088.], for which the pEC50 was 7.22.
For `COc1cc(-c2nc(-c3ccc(F)cc3)n(CC(=O)N3CCc4nc(C)sc4CC3)n2)ccc1F` [Example 7.03.089.], the pEC50 is 7.15.
Regarding `Cc1nc2c(s1)CCN(C(=O)Cn1nc(-c3ccc(F)c(C)c3)nc1C1CCC(C)CC1)CC2` (stereo not shown) [Example 7.03.090.], the negative logarithm of the EC50 (pEC50) was 6.38.
Take `Cc1nc2c(s1)CN(C(=O)Cn1nc(-c3ccc(F)c(C)c3)nc1C1CCC(C)CC1)C2` (stereo not shown) [Example 7.03.091.]: the negative-log EC50 (pEC50) is 5.77.
In the case of `Cc1cc(-c2nc(C3CCC(C)CC3)n(CC(=O)N3CCc4nc(N)sc4CC3)n2)ccc1F` (stereo not shown) [Example 7.03.092.], the negative-log EC50 (pEC50) was 5.94.
Regarding `Cc1nc2c(s1)CCN(C(=O)Cn1nc(-c3ccc(F)c(C)c3)nc1C1CCCCC1C)CC2` (stereo not shown) [Example 7.03.093.], the negative-log EC50 (pEC50) was 6.36.
As for `Cc1cc(-c2nc(C3CCCCC3C)n(CC(=O)N3CCc4nc(N)sc4CC3)n2)ccc1F` (stereo not shown) [Example 7.03.094.], the pEC50 was 5.96.
On to `Cc1cc(-c2nc(C3CCCC(C)C3)n(CC(=O)N3CCc4nc(N)sc4CC3)n2)ccc1F` (stereo not shown) [Example 7.03.095.], for which the pEC50 was 6.21.
On to `Cc1nc2c(s1)CCN(C(=O)Cn1nc(-c3ccc(F)c(C)c3)nc1C1CCCC(C)C1)CC2` (stereo not shown) [Example 7.03.096.], for which the negative logarithm of the EC50 (pEC50) is 6.45.
With `Cc1nc2c(s1)CCN(C(=O)Cn1nc(-c3ccc(F)c(C)c3)nc1C1CCC(F)(F)CC1)CC2` [Example 7.03.097.], the negative logarithm of the EC50 (pEC50) is 6.30.
With `Cc1nc2c(s1)CCN(C(=O)Cn1nc(-c3ccc(F)c(C)c3)nc1CC(C)C)CC2` [Example 7.03.098.], the pEC50 was 6.65.
For the compound `Cc1cc(-c2nc(CC(C)C)n(CC(=O)N3CCc4nc(N)sc4CC3)n2)ccc1F` [Example 7.03.099.], the negative-log EC50 (pEC50) is 6.57.
Next, `CCCCc1nc(-c2ccc(F)c(C)c2)nn1CC(=O)N1CCN(c2cccc(OC)c2)C(=O)C1` [Example 7.03.100.]: 6.52; `CCCCc1nc(-c2ccc(F)c(C)c2)nn1CC(=O)N1Cc2nc(C)sc2C1` [Example 7.03.101.]: 6.42.
For the compound `CCCCc1nc(-c2ccc(F)c(C)c2)nn1CC(=O)N1CCc2nc(N)sc2CC1` [Example 7.03.102.], the pEC50 is 6.53.
Take `CCCCc1nc(-c2ccc(F)c(C)c2)nn1CC(=O)N1CCc2nc(C)sc2CC1` [Example 7.03.103.]: the negative-log EC50 (pEC50) was 6.95.
Turning to `COc1cccc(N2CCN(C(=O)Cn3nc(-c4ccc(F)c(C)c4)nc3C3CCCC3)CC2=O)c1` [Example 7.03.104.], the negative logarithm of the EC50 (pEC50) is 6.17.
As for `Cc1nc2c(s1)CN(C(=O)Cn1nc(-c3ccc(F)c(C)c3)nc1C1CCCC1)C2` [Example 7.03.105.], the pEC50 is 6.06.
`Cc1cc(-c2nc(C3CCCC3)n(CC(=O)N3CCc4nc(N)sc4CC3)n2)ccc1F` [Example 7.03.106.]: the pEC50 is 6.60.
On to `Cc1nc2c(s1)CCN(C(=O)Cn1nc(-c3ccc(F)c(C)c3)nc1C1CCCC1)CC2` [Example 7.03.107.], for which the negative-log EC50 (pEC50) is 7.20.
Consider `CCCCCc1nc(-c2ccc(F)c(C)c2)nn1CC(=O)N1Cc2nc(C)sc2C1` [Example 7.03.108.], for which the negative logarithm of the EC50 (pEC50) was 6.70.
In the case of `CCCCCc1nc(-c2ccc(F)c(C)c2)nn1CC(=O)N1CCN(c2cccc(OC)c2)C(=O)C1` [Example 7.03.109.] it was 6.37; in that of `CCCCCc1nc(-c2ccc(F)c(C)c2)nn1CC(=O)N1CCc2nc(C)sc2CC1` [Example 7.03.110.], 7.26; in that of `CCCCCc1nc(-c2ccc(F)c(C)c2)nn1CC(=O)N1CCc2nc(N)sc2CC1` [Example 7.03.111.], 7.05.
For the compound `Cc1cc(-c2nc(CCC(C)C)n(CC(=O)N3CCc4nc(N)sc4CC3)n2)ccc1F` [Example 7.03.112.], the pEC50 was 6.83.
In the case of `Cc1nc2c(s1)CN(C(=O)Cn1nc(-c3ccc(F)c(C)c3)nc1CCC(C)C)C2` [Example 7.03.113.], the pEC50 is 6.47.
On to `Cc1nc2c(s1)CCN(C(=O)Cn1nc(-c3ccc(F)c(C)c3)nc1CCC(C)C)CC2` [Example 7.03.114.], for which the pEC50 is 6.99.
Take `Nc1nc2c(s1)CCN(C(=O)Cn1nc(-c3ccc(F)cn3)nc1-c1ccc(F)cc1)CC2` [Example 7.03.115.]: the negative logarithm of the EC50 (pEC50) is 6.64.
With `Cc1nc2c(s1)CCN(C(=O)Cn1nc(-c3ccc(F)cn3)nc1-c1ccc(F)cc1)CC2` [Example 7.03.116.], the pEC50 was 6.41.
As to `Cc1nc2c(s1)CCN(C(=O)Cn1nc(-c3ccc(F)cc3)nc1-c1ccc(F)cn1)CC2` [Example 7.03.117.], the pEC50 is 6.05.
With `CC1CN(C(=O)Cn2nc(-c3ccc(F)cc3)nc2-c2ccc(F)cc2)CCN1c1ncccn1` (stereo not shown) [Example 7.03.118.], the negative-log EC50 (pEC50) is 6.68.
Regarding `CC1CN(c2ncccn2)CCN1C(=O)Cn1nc(-c2ccc(F)cc2)nc1-c1ccc(F)cc1` (stereo not shown) [Example 7.03.119.], the pEC50 is 6.48.
In the case of `Cc1nc2c(s1)CC(C)N(C(=O)Cn1nc(-c3ccc(F)cc3)nc1-c1ccc(F)cc1)CC2` (stereo not shown) [Example 7.03.121.] it was 6.59; in that of `Cc1nc2c(o1)CCN(C(=O)Cn1nc(-c3ccc(F)cc3)nc1-c1ccc(F)cc1)CC2` [Example 7.03.122.], 7.24; in that of `Cc1nc2c(o1)CN(C(=O)Cn1nc(-c3ccc(F)c(C)c3)nc1-c1ccccc1)C2` [Example 7.03.123], 7.51.
In the case of `Cc1nc2c(o1)CN(C(=O)Cn1nc(-c3ccc(F)cc3)nc1-c1ccc(F)cc1)C2` [Example 7.03.124] it was 7.21.
As for `CCCCCc1nc(-c2ccc(F)c(C)c2)nn1CC(=O)N1Cc2nc(C)oc2C1` [Example 7.03.125], the negative logarithm of the EC50 (pEC50) is 6.82.
